Results from patent US20110076693A1, “METHOD FOR DETECTION AND QUANTIFICATION OF PLK1 EXPRESSION AND ACTIVITY” (The U.S.A. as Represented by the Secretary , Dept.of Health …, priority 2008, published 2011).

How the values were obtained:
Plk1 [1] = experiment: Direct Plk1 kinase assay with total HeLa lysates and [γ-32P]ATP using GST-PBIPtides as substrate; format: biochemical, human; conditions: shPlk1 HeLa lysates, compared with PBIPtide4
Experimental: FIGS. 1A-1B are digital images of Western blots, a schematic representation of a kinase assay and a set of bar graphs showing that a peptide that contains the T78 motif of PBIP1 (a PBIPtide) can be used to quantitate the kinase activity of Plk1 in vitro. […] FIG. 1A Left, mitotic HeLa lysates were incubated with either bead-immobilized control glutathione S-transferase (GST) or GST-PBIPtide4 in TBSN buffer containing phosphatase inhibitors. Beads were precipitated and washed and then subjected to in vitro kinase assays in the presence of [γ-^32P]-ATP. Samples were separated by sodium dodecyl sulfate polyacrylamide gel electrophoresis (SDS/PAGE), transferred to polyvinylidene fluoride (PVDF), and then exposed (Autorad). The membrane was immunoblotted with the indicated antibodies and then stained with Coomassie (CBB). Note that the anti-p-T78 signal (α-p-T78 panel) is relatively weak because the incubation was carried out in TBSN at 4° C. FIG. 1A Right is schematic diagram illustrating the experimental procedures described in FIG. 1A Left. The ellipsoids depict bead-associated GST-PBIPtide containing the T78 motif. […] The GST-PBIPtide bands were excised, and incorporated 32P was quantified. […]
It was then determined whether the Plk1 activity present in total cellular lysates could be directly measured by incubating the lysates with GST-PBIPtide. […]

PBD of Plk1 = target: T1, PBD of Plk1 (Homo sapiens, UniProt P53350); experiment: Binding of Plk1-phosphorylated 32P-PBIPtide-A6 to bead-bound GST-PBD; conditions: GST-PBD vs GST-PBD (H538A K540M), TBSN buffer, 1 hour at 4° C.
T1 construct: made in house

Plk1 [2] = experiment: PBIPtide-based Plk1 ELISA with shLuc/shPlk1 HeLa lysates; conditions: compared with PBIPtide4
Experimental: The ELISA wells were coated with soluble GST-PBIPtide containing the T78 motif and then reacted with total cellular lysates. The Plk1 activity in the total lysates generates the p-T78 epitope to which Plk1 itself binds. After reaction, Plk1 activity is quantified by incubating the ELISA wells with either anti-p-T78 antibody (to detect the p-T78 epitope generated) or anti-Plk1 antibody (to detect Plk1 bound to the p-T78 epitope), followed by HRP-conjugated secondary antibody (the grey antibody with a black dot). The asterisks indicate 3.3′, 5.5′-tetramethylbenzidine (TMB) substrate and its reaction product, generated by HRP. […] HeLa cells were silenced for control luciferase (shLuc) or Plk1 (shPlk1) and then treated with nocodazole for 16 hours to arrest the cells in prometaphase (a condition that maximizes Plk1 activity). […] Buffer indicates no-lysate control. The same lysates were subjected to immunoblotting analysis to determine the level of Plk1 in the lysates. […] GST-PBIPtide-A6-coated ELISA wells were incubated with the indicated amount of recombinant Plk1 purified from Sf9 cells. The level of the p-T78 epitope generated and the amount of Plk1 bound to the p-T78 GST-PBIPtide-A6 were quantified by using anti-p-T78 and anti-Plk1 antibodies, respectively. […] Total lysates were prepared from these cells and applied to the GST-PBIPtide-A6-coated wells. Buffer indicates no-lysate control. […]

T1 sequence (P53350 326-603 limits assumed): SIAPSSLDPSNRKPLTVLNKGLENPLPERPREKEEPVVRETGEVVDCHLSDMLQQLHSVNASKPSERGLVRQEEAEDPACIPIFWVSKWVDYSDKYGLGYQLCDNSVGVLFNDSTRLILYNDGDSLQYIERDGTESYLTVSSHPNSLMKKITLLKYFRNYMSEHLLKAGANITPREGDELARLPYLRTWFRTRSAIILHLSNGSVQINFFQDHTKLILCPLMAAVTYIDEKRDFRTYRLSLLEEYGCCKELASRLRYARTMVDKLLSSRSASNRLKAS

Level of 32P incorporation after Plk1 depletion (Plk1 [1]): mildly, but reproducibly, lower level
PBD binding after Plk1-dependent phosphorylation of the T78 motif (PBD of Plk1): sufficient for the PBD binding
Substance: GST-PBIPtide-A6: N-terminal GST fusion of SEQ ID NO: 8; 6 repeats of the PBIPtide (Y68F T70A Y81F) triple mutant joined by GGPGG linkers
Sensitivity to Plk1 activity (Plk1 [2]): mildly, but reproducibly, increased sensitivity
